The target of test [1] is T1, KlAbd1 (K. lactis cap methyltransferase Abd1, wild-type) (Kluyveromyces lactis, UniProt Q6CKI0).
T1 construct: aa 1–426); His10-Smt3 (N, cleaved yes); made in house; host or cells: Escherichia coli BL21 (DE3) CodonPlus RIL
Kind of test: Inhibition of GpppA methylation by KlAbd1 (LC-MS/MS assay). The conditions noted are these: for IC50: wild-type KlAbd1 250 nM, 100 μM SAM, 250 μM GpppA, 30°C, 10 min. The class given is biochemical. How it is done: (§1) Reactions (50 μl) were performed in triplicate by incubating 250 nM cap methyltransferases with 100 μM SAM and 250 μM GpppA or 2 mM GTP at 30°C in a buffer consisting of 200 mM NaCl, 50 mM Tris–HCl (pH 8.2), and 5 mM βME. Samples (10 μl aliquots) were withdrawn at specified time points (KlAbd1s: 0, 2, 5, 10, and 15 min, Fig. 1A; ScAbd1s: 0, 5, 10, 15, and 20 min, Fig. 4A) and quenched with 10 μl of 100 mM H2SO4 and 50 μM L-tryptophan, and then stored at −80°C pending liquid chromatography-tandem mass spectrometry (LC–MS/MS) analyses.
(§2) The quenched samples were thawed and centrifuged at 4000 × g at 4°C for 30 min to pellet denatured protein and the supernatants were transferred to a 96-well plate for analysis. Methylation was measured via HPLC with detection by MS conducted on an Agilent 1200 HPLC system coupled with a 6490 QQQ (Agilent Technologies). Assay samples were separated on an InfinityLab Poroshell 120 HILIC-Z column (2.1 mm × 100 mm, 2.7 μm particle size; Agilent Technologies) equilibrated in NH4Ac buffer [A: 10% 10 mM NH4Ac, pH 9.0, and 500 μM methylene diphosphonic acid/90% acetonitrile (ACN); B: 90% 10 mM NH4Ac, pH 9.0, and 500 μM methylene diphosphonic acid/10% ACN] with a flow rate 400 μl/min. The eluents of the column were directed to an electrospray ion source, connected to the QQQ. Samples were analyzed by the QQQ using multiple reaction monitoring (MRM) in negative mode, which measures peak intensities of the product ions of m^7GpppA (785: 408, 620 m/z) or m^7GTP (536.0: 159.0, 371.0 m/z) and the internal standard, L-tryptophan (203: 116, 141.9 m/z). The resultant peak intensities were then integrated. L-Tryptophan was used as an internal standard to perform cross-sample analysis. The m^7GpppA or m^7GTP product ion integrated intensities were normalized to the integrated ion intensity of L-tryptophan, yielding the ISTD. […] ISTDs obtained from reaction samples quenched at specified time points were then used to interpolate either m^7GpppA or m^7GTP concentrations using the calibration curves and used for quantification. […]

The target of test [2] is T2, ScAbd1WT (Saccharomyces cerevisiae, UniProt P32783).
T2 construct: aa 1–436); made in house; host or cells: Escherichia coli BL21 (DE3) CodonPlus RIL
T2 sequence (P32783 whole entry, the tested form may be a part): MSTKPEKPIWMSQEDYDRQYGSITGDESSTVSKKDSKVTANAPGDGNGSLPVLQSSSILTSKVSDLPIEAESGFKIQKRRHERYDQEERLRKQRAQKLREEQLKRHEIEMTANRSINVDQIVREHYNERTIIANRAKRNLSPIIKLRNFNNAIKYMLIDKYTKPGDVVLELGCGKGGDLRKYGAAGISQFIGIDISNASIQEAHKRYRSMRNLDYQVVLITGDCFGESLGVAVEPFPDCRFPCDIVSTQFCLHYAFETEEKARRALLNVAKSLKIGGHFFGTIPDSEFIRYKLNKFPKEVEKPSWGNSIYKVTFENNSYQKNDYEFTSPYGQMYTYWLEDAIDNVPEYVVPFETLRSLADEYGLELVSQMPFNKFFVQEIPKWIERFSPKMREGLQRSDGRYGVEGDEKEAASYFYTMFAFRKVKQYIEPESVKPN
Nature of the test: Inhibition of GpppA methylation by wild-type ScAbd1 (LC-MS/MS assay). It counts as biochemical. The conditions noted are these: for IC50: ScAbd1WT 250 nM, 100 μM SAM, 250 μM GpppA, 30°C, 20 min. On the procedure:
as §1, §2

Test [3] has as its target T3, ScAbd1-L59P-Y416C (Saccharomyces cerevisiae, UniProt P32783, L59P/Y416C).
T3 construct: aa 1–436); made in house; host or cells: Escherichia coli BL21 (DE3) CodonPlus RIL
Kind of test: Inhibition of GpppA methylation by ScAbd1-L59P-Y416C. The class given is biochemical. The conditions noted are these: ScAbd1-L59P-Y416C 250 nM, 100 μM SAM, 250 μM GpppA, 30°C, 20 min. How it is done: as §1
(§3) The quenched samples were thawed and centrifuged at 4000 × g at 4°C for 30 min to pellet denatured protein and the supernatants were transferred to a 96-well plate for analysis. Methylation was measured via HPLC with detection by MS conducted on an Agilent 1200 HPLC system coupled with a 6490 QQQ (Agilent Technologies). […] Samples were analyzed by the QQQ using multiple reaction monitoring (MRM) in negative mode, which measures peak intensities of the product ions of m^7GpppA (785: 408, 620 m/z) or m^7GTP (536.0: 159.0, 371.0 m/z) and the internal standard, L-tryptophan (203: 116, 141.9 m/z). […] ISTDs obtained from reaction samples quenched at specified time points were then used to interpolate either m^7GpppA or m^7GTP concentrations using the calibration curves and used for quantification. […]

For test [4], the target named is T4, ScAbd1-E124K-K163R-K311R-F387Y-Y416F (Saccharomyces cerevisiae, UniProt P32783, E124K/F387Y/K163R/K311R/Y416F).
T4 construct: aa 1–436); made in house; host or cells: Escherichia coli BL21 (DE3) CodonPlus RIL
T4 sequence (P32783 whole entry E124K/K163R/K311R/F387Y/Y416F, the tested form may be a part): as the sequence (P32783 whole entry, the tested form may be a part) above, with E124K, K163R, K311R, F387Y, Y416F counted along it
Kind of test: Inhibition of GpppA methylation by ScAbd1-E124K-K163R-K311R-F387Y-Y416F. The class given is biochemical. The conditions noted are these: ScAbd1-E124K-K163R-K311R-F387Y-Y416F 250 nM, 100 μM SAM, 250 μM GpppA, 30°C, 20 min. On the procedure: as §1, §3

Test [5] deals with T5, ScAbd1-Y416N-R422H (Saccharomyces cerevisiae, UniProt P32783, R422H/Y416N).
T5 construct: aa 1–436); made in house; host or cells: Escherichia coli BL21 (DE3) CodonPlus RIL
T5 sequence (P32783 whole entry Y416N/R422H, the tested form may be a part): as the sequence (P32783 whole entry, the tested form may be a part) above, with Y416N, R422H counted along it
Kind of test: Inhibition of GpppA methylation by ScAbd1-Y416N-R422H. It counts as biochemical. The conditions noted are these: ScAbd1-Y416N-R422H 250 nM, 100 μM SAM, 250 μM GpppA, 30°C, 20 min; read-out: SAH IC50. How it is done: as §1, §3

The target of test [6] is T6, ScAbd1-Y416A (Saccharomyces cerevisiae, UniProt P32783, Y416A).
T6 construct: aa 1–436); made in house; host or cells: Escherichia coli BL21 (DE3) CodonPlus RIL
T6 sequence (P32783 whole entry Y416A, the tested form may be a part): as the sequence (P32783 whole entry, the tested form may be a part) above, with Y416A counted along it
Kind of test: Inhibition of GpppA methylation by ScAbd1-Y416A. The conditions noted are these: ScAbd1-Y416A 250 nM, 100 μM SAM, 250 μM GpppA, 30°C, 20 min. The class given is biochemical. How it is done:
as §1, §3

In test [7] the test system is Ecm1. The conditions noted are these: methylation of GTP by Ecm1 in the presence of 5 μM SAM; cited from earlier work.
For test [8], the system named is recombinant S. cerevisiae Abd1. To be noted: cited from earlier work.
The subject of test [9] is ScAbd1 variants L59P-Y416C, Y416N-R422H, E124K-K163R-K311R-F387Y-Y416F and Y416A. Nature of the test: Inhibition of GpppA methylation, the four SFG-resistant ScAbd1 variants stated together. It counts as biochemical, Saccharomyces cerevisiae. To be noted: versus wild-type ScAbd1. On the procedure: as §1, §3
The subject of test [10] is S. cerevisiae abd1Δ pABD1* pSAM3 strains. Nature of the test: Spot test for growth of abd1Δ pSAM3 strains bearing ABD1 alleles on SFG-supplemented agar. The conditions noted are these: 30°C. The class given is cell-based, Saccharomyces cerevisiae. How it is done: A library of PCR-mutated ABD1 alleles (ABD1*) in a CEN TRP1 plasmid under the control of the ABD1 promoter was constructed as described. The pABD1* library DNA was transfected into S. cerevisiae strain abd1Δ pABD1 (CEN URA3 ABD1) pSAM3 (2µ HIS3 SAM3). Trp^+ His^+ transformants were selected and then plated to agar medium containing 5-fluoroorotic acid (FOA) to counter-select against the CEN URA3 ABD1 plasmid. FOA survivors were plated to Trp- His- agar plates (25 ml) to which 300 µl of a 2.5 or 5 µM solution of SFG had been applied. Colonies that grew well on SFG-containing plates were candidates for harboring SFG-resistant ABD1* alleles. To ascertain whether SFG-resistance was linked to ABD1, the plasmids were recovered from individual SFG-resistant strains and amplified clonally by transformation in E. coli. The pABD1* plasmid DNAs isolated from E. coli were transfected into S. cerevisiae abd1Δ pABD1 (CEN URA3 ABD1) pSAM3 (2µ HIS3 SAM3) strain. Trp^+ His^+ transformants were selected and plated to FOA for counterselection against the CEN URA3 ABD1 plasmid. The resulting abd1Δ pABD1* (CEN TRP1 ABD1*) pSAM3 (2µ HIS3 SAM3) strains were tested in parallel with a control abd1Δ pABD1 (CEN TRP1 ABD1) pSAM3 (2µ HIS3 SAM3) strain for growth on Trp- His- agar plates (25 ml) supplemented with SFG (300 µl of 0.63, 1.25, 2.5 and 5 µM SFG per plate). […]

In test [11] the target is human cap guanine-N7 methyltransferase RNMT. The conditions noted are these: cited from earlier work.
Test [12] deals with S. cerevisiae strain complemented with the mammalian capping apparatus. Also noted: method as in PMID 10347220. The conditions noted are these: cited from earlier work.
Test [13] relates to S. cerevisiae and an S. cerevisiae strain complemented with Candida albicans capping enzymes. Also noted: method as in PMID 15964937, PMID 11035009. The conditions noted are these: S. cerevisiae versus strain complemented with Candida albicans capping enzymes; cited from earlier work.

Several values for one entry are separate records, joined by “and”; a condition that tells them apart may be missing. Identical values can stand only once. Like-named read-outs stand apart in the source and are kept apart here.

As usually defined, the IC50 is the concentration that inhibits the measured activity by half.

T1 sequence (Q6CKI0 whole entry, the tested form may be a part): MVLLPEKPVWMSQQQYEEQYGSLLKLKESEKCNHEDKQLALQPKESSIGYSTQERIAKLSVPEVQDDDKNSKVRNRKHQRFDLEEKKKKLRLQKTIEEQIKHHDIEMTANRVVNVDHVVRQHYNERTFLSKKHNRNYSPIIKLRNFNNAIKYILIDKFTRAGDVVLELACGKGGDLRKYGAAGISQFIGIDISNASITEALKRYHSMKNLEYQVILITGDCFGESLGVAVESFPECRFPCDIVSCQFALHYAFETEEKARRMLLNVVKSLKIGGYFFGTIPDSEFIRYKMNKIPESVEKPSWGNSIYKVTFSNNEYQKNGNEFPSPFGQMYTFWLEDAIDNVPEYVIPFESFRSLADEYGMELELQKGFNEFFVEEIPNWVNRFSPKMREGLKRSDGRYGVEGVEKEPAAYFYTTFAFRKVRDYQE
T3 sequence (P32783 whole entry L59P/Y416C, the tested form may be a part): as the sequence (P32783 whole entry, the tested form may be a part) above, with L59P, Y416C counted along it

Take `Nc1ncnc2c1ncn2[C@@H]1O[C@H](CSCC[C@H](N)C(=O)O)[C@@H](O)[C@H]1O` [SAH, S-adenosylhomocysteine]: the IC50 in test [1] (read-out: IC50 of SAH) was determined as 12300 ± 4100 nM; in test [2] (read-out: SAH IC50) it was 31600 ± 6800 nM; in [3] (read-out: SAH IC50), 33500 ± 2300 nM; in [4] (read-out: SAH IC50), 35600 ± 2600 nM; in test [5], 29700 ± 4700 nM; in test [6] (read-out: SAH IC50), 16400 ± 2600 nM. Besides, the IC50 in [7] is 4000 nM; in [8] (methylation of GpppA by recombinant S. cerevisiae Abd1, read-out: IC50 of SAH), 21000 nM.

Take `Nc1ncnc2c1ncn2[C@@H]1O[C@H](C[C@@H](N)CC[C@H](N)C(=O)O)[C@@H](O)[C@H]1O` [SFG, sinefungin]: in test [1] (KlAbd1, GpppA substrate), the “potency of SFG versus SAH (ratio of the IC50 values)” value is given as 240 fold. In addition, the IC50 was 52.1 ± 13.1 nM in [1] (read-out: apparent IC50 of SFG); 65 nM and 65.1 nM in test [2] (read-out: SFG IC50); 1350 ± 69.9 nM in test [3] (read-out: SFG IC50); 1470 ± 67.7 nM in test [4] (read-out: SFG IC50); 1470 ± 77 nM in test [6] (read-out: SFG IC50); 1500 nM in test [7]. Moreover, the IC50 in test [8] (S. cerevisiae Abd1 in vitro, GpppA, read-out: apparent IC50 of SFG) is 24 nM. Besides, in test [2] (wild-type ScAbd1, GpppA substrate), the “sensitivity/affinity for SFG versus SAH (ratio of IC50 values)” value is reported as 485 fold. For the same compound, the “increase of the IC50 for SFG in the SFG-resistant mutants” value in test [9] was 20 fold. Moreover, the “SFG resistance of growth” value in test [10] (single ABD1-Y416A mutation, abd1Δ pSAM3 (2μ HIS3 SAM3) strain background, agar) is “sufficed to confer SFG resistance”. Moreover, in test [10] (three ABD1* strains (L59P-Y416C, Y416N-R422H, E124K-K163R-K311R-F387Y-Y416F) versus isogenic wild-type ABD1, Trp- His- agar), the “sensitivity to growth inhibition by SFG” value is “less sensitive to growth inhibition by SFG than the isogenic wild-type ABD1 strain”. The “tighter binding of SFG than of SAM or SAH” value in test [8] (ScAbd1) was “up to 900 fold”. For the same compound, the “potency of SFG versus SAH” value in test [8] (methylation of GpppA by recombinant S. cerevisiae Abd1) was 900 fold. Further, the “IC50 of SFG lower than that of SAH” value in test [11] is reported as 130 fold. Also, in test [12], the “potency of growth inhibition relative to S. cerevisiae with fungal capping system” value is “five-fold less potent”. Moreover, the “potency of growth inhibition, comparison of the two strains” value in test [13] is given as “equal potency”.
